Source: patent US20220362122A1, “Hair Treatment Compositions With Amine Derivatives” (ELC Management LLC, priority 2021, published 2022)
Entries after “also recorded” stand apart in the source; their conditions may differ. Marks after values point to notes of the source that are not given here.

Tested on: outer root sheath cells
Test: MultiTox-Fluor Multiplex Cytotoxicity Assay, outer root sheath cells
Assay type: cell-based
Details: greater IC50 = less stress on the cells; unit inferred
Experimental: (§1) The effects of alkalizer compositions on outer root sheath cells and on keratinocytes was evaluated. The MultiTox-Fluor Multiplex Cytotoxicity Assay (Promega Corp., Madison, Wis.) simultaneously measures two protease activities: one is a marker of cell viability, and the other is a marker of cytotoxicity. In the assays, the responses of outer root sheath cells and keratinocytes to various concentrations of alkalizers were measured, and IC50, the concentration that provokes a mid-height response (midway between the baseline response and maximal response), was determined.

In order of rising IC50:
1. CN(C)C(C)(C)CO [DMAMP, 2-Dimethyl-amino-2-methyl-1-propanol]  18 mM
2. NCC(O)CO (stereo not drawn) [Isoserinol, 3-Amino-1,2-propanediol]  56.3 mM

Same assay, conditions: outer root sheath cells

With CC(C)(N)CO [AMP, aminomethyl propanol, reference compound] the “toxicity to the cell, comparison in words” value (“toxicity to the cell” for short) was “more toxic to the cell than ammonium hydroxide”.
In the case of CN(C)C(C)(C)CO [DMAMP, 2-Dimethyl-amino-2-methyl-1-propanol], the “toxicity to the cell” value is reported as “more toxic than ammonium hydroxide, but less toxic than conventional replacement AMP; also recorded: more toxic to the cell than ammonium hydroxide”.
For NCC(O)CO (stereo not drawn) [Isoserinol, 3-Amino-1,2-propanediol], the “toxicity to the cell” value was “significantly less toxic than ammonium hydroxide”.
With CN(C)CC(O)CO (stereo not drawn) [DMAPD, 3-(dimethylamino)-1,2-propanediol] the “toxicity to the cell” value was “significantly less toxic than ammonium hydroxide”.

Tested on: keratinocytes
Test: MultiTox-Fluor Multiplex Cytotoxicity Assay, keratinocytes
Assay type: cell-based
Details: Keratinocyte; greater IC50 = less stress on the cells; unit inferred
Experimental: as §1

In order of falling IC50:
1. NCC(O)CO (stereo not drawn) [Isoserinol, 3-Amino-1,2-propanediol]  97 mM
2. CN(C)C(C)(C)CO [DMAMP, 2-Dimethyl-amino-2-methyl-1-propanol]  33 mM

Same assay, conditions: keratinocytes

In the case of CC(C)(N)CO [AMP, aminomethyl propanol, reference compound], the “toxicity to the cell” value is reported as “more toxic to the cell than ammonium hydroxide”.
With CN(C)C(C)(C)CO [DMAMP, 2-Dimethyl-amino-2-methyl-1-propanol] the “toxicity to the cell” value was “more toxic than ammonium hydroxide, but less toxic than conventional replacement AMP; also recorded: less toxic to keratinocytes than MEA; also recorded: more toxic to the cell than ammonium hydroxide”.
With NCC(O)CO (stereo not drawn) [Isoserinol, 3-Amino-1,2-propanediol] the “toxicity to the cell” value was “significantly less toxic than ammonium hydroxide”.
In the case of CN(C)CC(O)CO (stereo not drawn) [DMAPD, 3-(dimethylamino)-1,2-propanediol], the “toxicity to the cell” value is reported as “significantly less toxic than ammonium hydroxide”.

Tested on: not given
Test: not given
Details: alkalizer composition; 22° C., T-F spindle, 6 rpm

In order of rising “Viscosity (cP × 10^5)” value:
1. CN(C)C(C)(C)CO [DMAMP, 2-Dimethyl-amino-2-methyl-1-propanol]  0.211 cP × 10^5
2. CC(C)(N)CO [AMP, aminomethyl propanol, reference compound]  1.81 cP × 10^5
3. CN(C)CC(O)CO (stereo not drawn) [DMAPD, 3-(dimethylamino)-1,2-propanediol]  3.23 cP × 10^5
4. 3-Amino-1-propanol [AP]  3.26 cP × 10^5
5. NCC(O)CO (stereo not drawn) [Isoserinol, 3-Amino-1,2-propanediol]  3.75 cP × 10^5
6. NC(CO)(CO)CO [Tris, Tromethamine]  4.17 cP × 10^5
7. OCCNCCO [DEA, Diethanolamine]  5.09 cP × 10^5
8. NC(CO)CO [Serinol, 2-Amino-1,3-propanediol]  10.1 cP × 10^5

Tested on: not given
Test: not given
Details: alkalizer composition

In order of rising “Alkalinity” value:
1. CC(C)(N)CO [AMP, aminomethyl propanol, reference compound]  2.32 mL/g
2. CN(C)C(C)(C)CO [DMAMP, 2-Dimethyl-amino-2-methyl-1-propanol]  2.38 mL/g
3. NC(CO)(CO)CO [Tris, Tromethamine]  2.43 mL/g
4. NCC(O)CO (stereo not drawn) [Isoserinol, 3-Amino-1,2-propanediol]  2.45 mL/g
5. NC(CO)CO [Serinol, 2-Amino-1,3-propanediol]  2.55 mL/g
6. CN(C)CC(O)CO (stereo not drawn) [DMAPD, 3-(dimethylamino)-1,2-propanediol]  2.57 mL/g
7. OCCNCCO [DEA, Diethanolamine]  2.57 mL/g
8. 3-Amino-1-propanol [AP]  3.10 mL/g

Tested on: keratin in hair
Test: not given
Details: not given

In order of falling “% Relative damage level compared to NaOH (TVirgin-TAlkalizer)/(TVirgin-TNaOH)” value:
1. [Na+].[OH-] [NaOH, reference compound]  100%
2. 3-Amino-1-propanol [AP]  83.97%
3. CC(C)(N)CO [AMP, aminomethyl propanol, reference compound]  60.11%
4. NCC(O)CO (stereo not drawn) [Isoserinol, 3-Amino-1,2-propanediol]  40.80%
5. NC(CO)CO [Serinol, 2-Amino-1,3-propanediol]  22.32%
6. CN(C)C(C)(C)CO [DMAMP, 2-Dimethyl-amino-2-methyl-1-propanol]  18.05%
7. CN(C)CC(O)CO (stereo not drawn) [DMAPD, 3-(dimethylamino)-1,2-propanediol]  6.72%

In order of rising “Damage level normalized to NH3•H2O” value:
1. CN(C)CC(O)CO (stereo not drawn) [DMAPD, 3-(dimethylamino)-1,2-propanediol]  0.34
2. NC(CO)(CO)CO [Tris, Tromethamine]  0.51
3. OCCNCCO [DEA, Diethanolamine]  0.64
4. CN(C)C(C)(C)CO [DMAMP, 2-Dimethyl-amino-2-methyl-1-propanol]  0.92
5. Ammonium hydroxide [reference compound]  1
6. NC(CO)CO [Serinol, 2-Amino-1,3-propanediol]  1.14
7. NCC(O)CO (stereo not drawn) [Isoserinol, 3-Amino-1,2-propanediol]  2.09
8. CC(C)(N)CO [AMP, aminomethyl propanol, reference compound]  3.08
9. 3-Amino-1-propanol [AP]  4.30
10. [Na+].[OH-] [NaOH, reference compound]  5.12

In order of falling “ΔT (change in denaturation temperature) TVirgin-TAlkalizer” value:
1. [Na+].[OH-] [NaOH, reference compound]  14.29
2. 3-Amino-1-propanol [AP]  12
3. CC(C)(N)CO [AMP, aminomethyl propanol, reference compound]  8.59
4. NCC(O)CO (stereo not drawn) [Isoserinol, 3-Amino-1,2-propanediol]  5.83
5. NC(CO)CO [Serinol, 2-Amino-1,3-propanediol]  3.19
6. Ammonium hydroxide [reference compound]  2.79
7. CN(C)C(C)(C)CO [DMAMP, 2-Dimethyl-amino-2-methyl-1-propanol]  2.58
8. OCCNCCO [DEA, Diethanolamine]  1.79
9. NC(CO)(CO)CO [Tris, Tromethamine]  1.42
10. CN(C)CC(O)CO (stereo not drawn) [DMAPD, 3-(dimethylamino)-1,2-propanediol]  0.96

For CN(C)C(C)(C)CO [DMAMP, 2-Dimethyl-amino-2-methyl-1-propanol], the “denaturation temperature in binary combinations, in words” value was “raised the denaturation temperature”.
In the case of NC(CO)CO [Serinol, 2-Amino-1,3-propanediol], the “denaturation temperature in binary combinations, in words” value is reported as “lowered the denaturation temperature, but only slightly”.

For CN(C)C(C)(C)CO [DMAMP, 2-Dimethyl-amino-2-methyl-1-propanol], the “hair damage / denaturation temperature, comparison in words” value (“hair damage / denaturation temperature” for short) was “less damaging to hair than the ammonium hydroxide composition”.
With NCC(O)CO (stereo not drawn) [Isoserinol, 3-Amino-1,2-propanediol] the “hair damage / denaturation temperature” value was “performed significantly better than MEA and AMP”.
For CN(C)CC(O)CO (stereo not drawn) [DMAPD, 3-(dimethylamino)-1,2-propanediol], the “hair damage / denaturation temperature” value was “less damaging to hair than the ammonium hydroxide composition”.
With NC(CO)(CO)CO [Tris, Tromethamine] the “hair damage / denaturation temperature” value was “also performed well”.
With OCCNCCO [DEA, Diethanolamine] the “hair damage / denaturation temperature” value was “less damaging to hair than the ammonium hydroxide composition”.

In the case of 3-Amino-1-propanol [AP], the “Denaturation Temperature (° C.)” value is reported as 138.42 °C.

Tested on: not given
Test: not given
Details: Table 8A DMAMP-NH3 series, mole ratio DMAMP/NH3; virgin hair 20.3

In the case of CN(C)C(C)(C)CO [DMAMP, 2-Dimethyl-amino-2-methyl-1-propanol], the “L* value” is reported as 26.

Same assay, conditions: Table 8B DMAMP-NH3 in low DMAMP percentages, mole ratio DMAMP/NH3; virgin hair 20.3

For CN(C)C(C)(C)CO [DMAMP, 2-Dimethyl-amino-2-methyl-1-propanol], the “L* value” was 24.9.

Same assay, conditions: Table 9 Tris-NH3 series, mole ratio Tris/NH3; virgin hair 20.0

In the case of NC(CO)(CO)CO [Tris, Tromethamine], the “L* value” is reported as 28.

Same assay, conditions: Table 10 Serinol-NH3 series, mole ratio Serinol/NH3; virgin hair 19.9

For NC(CO)CO [Serinol, 2-Amino-1,3-propanediol], the “L* value” was 31.2.

Same assay, conditions: Table 11 AMPD-Tris series, mole ratio AMPD/Tris; virgin hair 20.3

In the case of NC(CO)(CO)CO [Tris, Tromethamine], the “L* value” is reported as 28.

Same assay, conditions: Table 12 AEPD-Tris series, mole ratio AEPD/Tris; virgin hair 20.4

With NC(CO)(CO)CO [Tris, Tromethamine] the “L* value” was 28.5.

Same assay, conditions: Table 13 Serinol-Tris series, mole ratio Serinol/Tris; virgin hair 20.4

In order of falling “L* value”:
1. NC(CO)CO [Serinol, 2-Amino-1,3-propanediol]  31.2
2. NC(CO)(CO)CO [Tris, Tromethamine]  28.5

Same assay, conditions: binary combinations of alkalizers

For NC(CO)(CO)CO [Tris, Tromethamine], the “L* value / color lifting in binary combinations, in words” value was “tends to reduce the effectiveness of color lifting”.

Same assay, conditions: single alkalizer composition + volume 40 oxidizer developer on hair tresses, 37° C., 45 minutes; virgin 19

In order of rising “L Value”:
1. CN(C)CC(O)CO (stereo not drawn) [DMAPD, 3-(dimethylamino)-1,2-propanediol]  25.5
2. CN(C)C(C)(C)CO [DMAMP, 2-Dimethyl-amino-2-methyl-1-propanol]  26
3. NC(CO)(CO)CO [Tris, Tromethamine]  27
4. NC(CO)CO [Serinol, 2-Amino-1,3-propanediol]  31
5. CC(C)(N)CO [AMP, aminomethyl propanol, reference compound]  32.5
6. NCC(O)CO (stereo not drawn) [Isoserinol, 3-Amino-1,2-propanediol]  36

For [Na+].[OH-] [NaOH, reference compound], the “L Value” was 36.6*.

Same assay, conditions: single alkalizer compositions, Table 5

In order of falling “Lifting level normalized to NH3•H2O” value:
1. 3-Amino-1-propanol [AP]  1.20
2. [Na+].[OH-] [NaOH, reference compound]  1.17
3. NCC(O)CO (stereo not drawn) [Isoserinol, 3-Amino-1,2-propanediol]  1.13
4. CC(C)(N)CO [AMP, aminomethyl propanol, reference compound]  0.90
5. NC(CO)CO [Serinol, 2-Amino-1,3-propanediol]  0.80
6. OCCNCCO [DEA, Diethanolamine]  0.77
7. NC(CO)(CO)CO [Tris, Tromethamine]  0.53
8. CN(C)C(C)(C)CO [DMAMP, 2-Dimethyl-amino-2-methyl-1-propanol]  0.47
9. CN(C)CC(O)CO (stereo not drawn) [DMAPD, 3-(dimethylamino)-1,2-propanediol]  0.43

In order of rising “Relative lifting level in percentage (LVirgin-LAlkalizer)/(LVirgin-LNaOH)” value:
1. CN(C)CC(O)CO (stereo not drawn) [DMAPD, 3-(dimethylamino)-1,2-propanediol]  36.93%
2. CN(C)C(C)(C)CO [DMAMP, 2-Dimethyl-amino-2-methyl-1-propanol]  39.77%
3. NC(CO)CO [Serinol, 2-Amino-1,3-propanediol]  68.18%
4. CC(C)(N)CO [AMP, aminomethyl propanol, reference compound]  76.70%
5. NCC(O)CO (stereo not drawn) [Isoserinol, 3-Amino-1,2-propanediol]  96.59%
6. [Na+].[OH-] [NaOH, reference compound]  100%
7. 3-Amino-1-propanol [AP]  102.27%

In order of falling “ΔL (change in color lifting) LVirgin-LAlkalizer” value:
1. CN(C)CC(O)CO (stereo not drawn) [DMAPD, 3-(dimethylamino)-1,2-propanediol]  −6.5
2. CN(C)C(C)(C)CO [DMAMP, 2-Dimethyl-amino-2-methyl-1-propanol]  −7
3. NC(CO)(CO)CO [Tris, Tromethamine]  −8
4. OCCNCCO [DEA, Diethanolamine]  −11.5
5. NC(CO)CO [Serinol, 2-Amino-1,3-propanediol]  −12
6. CC(C)(N)CO [AMP, aminomethyl propanol, reference compound]  −13.5
7. NCC(O)CO (stereo not drawn) [Isoserinol, 3-Amino-1,2-propanediol]  −17
8. [Na+].[OH-] [NaOH, reference compound]  −17.6
9. 3-Amino-1-propanol [AP]  −18

Same assay, conditions: single alkalizer/oxidizer mixtures

For 3-Amino-1-propanol [AP], the “lifting of natural hair color, comparison in words” value (“lifting of natural hair color” for short) was “better at lifting natural hair color than the ammonium hydroxide/oxidizer mixture; also recorded: outperformed all of them”.
In the case of NC(CO)CO [Serinol, 2-Amino-1,3-propanediol], the “lifting of natural hair color” value is reported as “performed significantly less well than ammonium hydroxide”.
For NCC(O)CO (stereo not drawn) [Isoserinol, 3-Amino-1,2-propanediol], the “lifting of natural hair color” value was “significantly better than AMP and about the same as MEA, at lifting hair color; also recorded: better at lifting natural hair color than the ammonium hydroxide/oxidizer mixture; also recorded: about the same effectiveness as MEA, and significantly better effectiveness than AMP”.
In the case of NC(CO)(CO)CO [Tris, Tromethamine], the “lifting of natural hair color” value is reported as “as good as tertiary alkalizer DMAP”.

Tested on: not listed separately
Test: pH of alkalizer composition
Details: not given

In order of falling pH:
1. 3-Amino-1-propanol [AP]  11.49
2. Ammonium hydroxide [reference compound]  10.72
3. OCCNCCO [DEA, Diethanolamine]  10.35

Same assay, conditions: alkalizer composition: Table 2 base + alkalizer, same molar percentage

In order of falling pH:
1. CN(C)C(C)(C)CO [DMAMP, 2-Dimethyl-amino-2-methyl-1-propanol]  11.15
2. CC(C)(N)CO [AMP, aminomethyl propanol, reference compound]  10.91
3. NCC(O)CO (stereo not drawn) [Isoserinol, 3-Amino-1,2-propanediol]  10.56
4. CN(C)CC(O)CO (stereo not drawn) [DMAPD, 3-(dimethylamino)-1,2-propanediol]  10.37
5. NC(CO)CO [Serinol, 2-Amino-1,3-propanediol]  10.22
6. NC(CO)(CO)CO [Tris, Tromethamine]  9.6
